Laboratory results: EP3456336B1, “A CELERY SEED AND SOPHORA FLOWER BUD EXTRACT AND MEDICAL USE THEREOF” (Beijing Tianheng Junwei Pharmaceutical Tech Co., Ltd, priority 2016, dated 2017)

Legend:
Format in all cases: in vivo, SD rats
Details in all cases: Benzbromarone group 20 mg/kg
hyperuricemia model [1] = experiment: Uric acid reducing effect: serum uric acid in high-fructose hyperuricemia model rats (uricase colorimetric method)
Protocol: (§1) SD rats were stratified by weight using random number table method, and each layer was divided into a normal group (10 rats), a fructose modeling group (50 rats) and a purine modeling group (24 rats) using random number table method. Tap water was administered to the normal group; a 10% (w/v) fructose solution was administered to the fructose modeling group for modeling; and for the purine modeling group, tap water was administered for drinking, 500 mg/kg of hypoxanthine + 100 mg/kg of nicotinic acid was administered by gastric perfusion according to body weight once a day, and the volume of perfusion was 10 ml/kg. The food and water consumption of rats were recorded daily, the body weights were weighed every 7 days, and blood was taken by shearing the tail tip on the next day of weighing. […] Among them, 0.5% CMC-Na was administered to the normal group and the model group by gastric perfusion, and respective drugs dissolved in 0.5% CMC-Na were administered to the other administration groups by gastric perfusion. The perfusion was performed once every morning. […] During the experiment, since there was no significant difference in blood uric acid level between the purine modeling group and the normal group from beginning to end, the modeling of the hyperuricemia model in rats was not successful, therefore, the rats were not further grouped. Table 1 Gastric perfusion dosages of rats in each group Every 7 days during the experiment, the body weights of the animals were weighed and recorded, blood was taken from the tail vein, and serum was separated by centrifugation. The uric acid (UA), urea nitrogen (BUN), creatinine (CRE), xanthine oxidase (XOD), adenosine deaminase (ADA) and guanine deaminase (GuDa) in serum were detected. On day 35 of the experiment, the 24-hour urine of the rats was collected, the urine volume was measured, the pH value was determined, and the urinary uric acid level, urinary creatinine level, and urinary urea nitrogen level were detected. After the experiment was terminated, the rats were sacrificed, and the right kidneys were taken and weighed. The specific determination method of each index was as follows. • ① Detecting serum uric acid and urinary uric acid by uricase colorimetric method: uric acid was catalyzed by uricase to produce allantoin and hydrogen peroxide (H2O2); […] A serum or urine sample was taken. […] Jaffe reaction occurred between the creatinine in the supernatant of serum from which protein was removed or the creatinine in clear urine and picric acid to produce an orange adduct. A serum or urine sample was taken. […] A serum or urine sample was taken. […] In the presence of an electron acceptor and a developer, a purple red conjugate was produced, and the activity of xanthine oxidase could be calculated according to the amount of the latter produced. A serum sample was taken. According to the operating instruction of Xanthine Oxidase Assay Kit, under the conditions of a cuvette the light path of 1 cm and a wavelength of 530 nm, double distilled water was used for zero calibration; the absorbance was determined by a UV spectrophotometer, and the activity of xanthine oxidase was obtained. • ⑤ Detecting adenosine deaminase (ADA) by enzymatic colorimetric method: adenine riboside was catalyzed by adenosine deaminase to hydrolyze and produce hypoxanthine riboside and ammonia, and the produced ammonia was developed. Therefore, the activity of serum adenosine deaminase could be calculated. A serum sample was taken. […]

[2] = Body weight of rats during the 35-day hyperuricemia experiment
Protocol: (§2) SD rats were stratified by weight using random number table method, and each layer was divided into a normal group (10 rats), a fructose modeling group (50 rats) and a purine modeling group (24 rats) using random number table method. Tap water was administered to the normal group; a 10% (w/v) fructose solution was administered to the fructose modeling group for modeling; and for the purine modeling group, tap water was administered for drinking, 500 mg/kg of hypoxanthine + 100 mg/kg of nicotinic acid was administered by gastric perfusion according to body weight once a day, and the volume of perfusion was 10 ml/kg. The food and water consumption of rats were recorded daily, the body weights were weighed every 7 days, and blood was taken by shearing the tail tip on the next day of weighing.
Among them, 0.5% CMC-Na was administered to the normal group and the model group by gastric perfusion, and respective drugs dissolved in 0.5% CMC-Na were administered to the other administration groups by gastric perfusion. The perfusion was performed once every morning. The dosages of administration were as follows: the dosage of benzbromarone was 20 mg/kg, the large-, medium- and small-dosages of the extract of the present disclosure were 1.9 g/kg, 0.95 g/kg, and 0.475 g/kg, respectively, the volume of administration was 15 ml/kg, and the experiment lasted for 35 days in total. During the experiment, since there was no significant difference in blood uric acid level between the purine modeling group and the normal group from beginning to end, the modeling of the hyperuricemia model in rats was not successful, therefore, the rats were not further grouped. Table 1 Gastric perfusion dosages of rats in each group
Every 7 days during the experiment, the body weights of the animals were weighed and recorded, blood was taken from the tail vein, and serum was separated by centrifugation. The uric acid (UA), urea nitrogen (BUN), creatinine (CRE), xanthine oxidase (XOD), adenosine deaminase (ADA) and guanine deaminase (GuDa) in serum were detected. On day 35 of the experiment, the 24-hour urine of the rats was collected, the urine volume was measured, the pH value was determined, and the urinary uric acid level, urinary creatinine level, and urinary urea nitrogen level were detected. After the experiment was terminated, the rats were sacrificed, and the right kidneys were taken and weighed.

hyperuricemia model [3] = experiment: Serum urea nitrogen (urease method) and serum creatinine (picric acid method) in hyperuricemia model rats
Protocol: as §1

[4] = tested on: adenosine deaminase (ADA); experiment: Serum adenosine deaminase activity in hyperuricemia model rats (enzymatic colorimetric method)
Protocol: as §2, with “weighing. […] Table 1 Gastric perfusion dosages of rats in each group Every 7 days during the experiment, the body weights of the animals were weighed and recorded, blood was taken from the tail vein, and serum was separated by centrifugation. The uric acid (UA), urea nitrogen (BUN), creatinine (CRE), xanthine oxidase (XOD), adenosine deaminase (ADA) and guanine deaminase (GuDa) in serum were detected. […] In the presence of an electron acceptor and a developer, a purple red conjugate was produced, and the activity of xanthine oxidase could be calculated according to the amount of the latter produced. […]” for “weighing.”

xanthine oxidase (XOD) = experiment: Serum xanthine oxidase activity in hyperuricemia model rats (enzymatic colorimetric method)
Protocol: as §2, with “weighing. […] Table 1 Gastric perfusion dosages of rats in each group Every 7 days during the experiment, the body weights of the animals were weighed and recorded, blood was taken from the tail vein, and serum was separated by centrifugation. The uric acid (UA), urea nitrogen (BUN), creatinine (CRE), xanthine oxidase (XOD), adenosine deaminase (ADA) and guanine deaminase (GuDa) in serum were detected. […] In the presence of an electron acceptor and a developer, a purple red conjugate was produced, and the activity of xanthine oxidase could be calculated according to the amount of the latter produced. […]” for “weighing.”

guanine deaminase (GuDa) = experiment: Serum guanine deaminase activity in hyperuricemia model rats (single enzyme reagent method)
Protocol: SD rats were stratified by weight using random number table method, and each layer was divided into a normal group (10 rats), a fructose modeling group (50 rats) and a purine modeling group (24 rats) using random number table method. Tap water was administered to the normal group; a 10% (w/v) fructose solution was administered to the fructose modeling group for modeling; and for the purine modeling group, tap water was administered for drinking, 500 mg/kg of hypoxanthine + 100 mg/kg of nicotinic acid was administered by gastric perfusion according to body weight once a day, and the volume of perfusion was 10 ml/kg. The food and water consumption of rats were recorded daily, the body weights were weighed every 7 days, and blood was taken by shearing the tail tip on the next day of weighing. […] Among them, 0.5% CMC-Na was administered to the normal group and the model group by gastric perfusion, and respective drugs dissolved in 0.5% CMC-Na were administered to the other administration groups by gastric perfusion. The perfusion was performed once every morning. […] Table 1 Gastric perfusion dosages of rats in each group Every 7 days during the experiment, the body weights of the animals were weighed and recorded, blood was taken from the tail vein, and serum was separated by centrifugation. The uric acid (UA), urea nitrogen (BUN), creatinine (CRE), xanthine oxidase (XOD), adenosine deaminase (ADA) and guanine deaminase (GuDa) in serum were detected. On day 35 of the experiment, the 24-hour urine of the rats was collected, the urine volume was measured, the pH value was determined, and the urinary uric acid level, urinary creatinine level, and urinary urea nitrogen level were detected. […] In the presence of an electron acceptor and a developer, a purple red conjugate was produced, and the activity of xanthine oxidase could be calculated according to the amount of the latter produced. […] Therefore, the activity of serum adenosine deaminase could be calculated. […]

hyperuricemia model [5] = experiment: 24-hour urine indices on day 35 in hyperuricemia model rats (volume, pH, uric acid, creatinine, urea nitrogen, clearances); set-up: Uric acid clearance / Creatinine clearance: unit not given here
Protocol: as §1

[6] = Right kidney weight of rats on day 35
Protocol: as §2, with “weighing. […]” for “weighing.”
Every 7 days during the experiment, the body weights of the animals were weighed and recorded, blood was taken from the tail vein, and serum was separated by centrifugation. The uric acid (UA), urea nitrogen (BUN), creatinine (CRE), xanthine oxidase (XOD), adenosine deaminase (ADA) and guanine deaminase (GuDa) in serum were detected. On day 35 of the experiment, the 24-hour urine of the rats was collected, the urine volume was measured, the pH value was determined, and the urinary uric acid level, urinary creatinine level, and urinary urea nitrogen level were detected. […]

CCc1oc2ccccc2c1C(=O)c1cc(Br)c(O)c(Br)c1 [Benzbromarone, benzbromarone]
serum uric acid level (hyperuricemia model [1]; Day 0, modeling period): 75.83 ± 38.77 µmol/L | serum uric acid level (hyperuricemia model [1]; Day 7, modeling period): 94.75 ± 25.26 µmol/L | serum uric acid level (hyperuricemia model [1]; Day 14, modeling period): 65.57±27.48^Δ µmol/L | serum uric acid level (hyperuricemia model [1]; Day 14, modeling period, listed as benzbromarone): significant decrease | serum uric acid level (hyperuricemia model [1]; Day 21, administration period): 68.45 ± 22.20 µmol/L | serum uric acid level (hyperuricemia model [1]; Day 28, administration period): 79.65±24.68^Δ µmol/L | serum uric acid level (hyperuricemia model [1]; Day 28, administration period, listed as benzbromarone): significant decrease | serum uric acid level (hyperuricemia model [1]; Day 35, administration period): 85.66±18.37^Δ µmol/L | serum uric acid level (hyperuricemia model [1]; Day 35, administration period, listed as benzbromarone): significant decrease | body weight ([2]; Day 0, modeling period): 243.40 ± 7.63 g | body weight ([2]; Day 7, modeling period): 325.46 ± 15.10 g | body weight ([2]; Day 14, modeling period): 365.30 ± 20.19 g | body weight ([2]; Day 21, administration period): 391.83 ± 19.39 g | body weight ([2]; Day 28, administration period): 425.86 ± 22.33 g | body weight ([2]; Day 35, administration period): 433.88 ± 27.07 g | Serum creatinine (hyperuricemia model [3]; Day 21): 99.21 ± 17.50 µmol/L | Serum urea nitrogen (hyperuricemia model [3]; Day 21): 5.73 ± 1.02 mM | Serum creatinine (hyperuricemia model [3]; Day 35): 74.54±25.76^Δ µmol/L | Serum urea nitrogen (hyperuricemia model [3]; Day 35): 6.27 ± 1.62 mM | Serum creatinine (hyperuricemia model [3]; Day 35, listed as benzbromarone): significant decrease | serum adenosine deaminase level ([4]; Day 21): 54.22 ± 8.72 U/ml | serum adenosine deaminase level ([4]; Day 35): 97.69 ± 15.32 U/ml | serum xanthine oxidase level (xanthine oxidase (XOD); Day 21): 28.66 ± 3.75 U/L | serum xanthine oxidase level (xanthine oxidase (XOD); Day 35): 20.61 ± 2.67 U/L | serum guanine deaminase activity (guanine deaminase (GuDa); Day 21): 29.46 ± 3.57^Δ U/L | serum guanine deaminase activity (guanine deaminase (GuDa); Day 21, listed as benzbromarone): significant decrease | serum guanine deaminase activity (guanine deaminase (GuDa); Day 35): 11.46 ± 4.83 U/L | Creatinine clearance (hyperuricemia model [5]): 1.67 ± 1.18 | Uric acid clearance (hyperuricemia model [5]): 0.155 ± 0.047 | 24-hour Urine volume (hyperuricemia model [5]; Day 35): 117.80 ± 31.17 mL | urinary pH (hyperuricemia model [5]; Day 35): 6.70 ± 0.71 | UBUN (concentration of urinary urea nitrogen) (hyperuricemia model [5]; day 35): 156.36 ± 133.40 mmol/L | UCR (concentration of urinary creatinine) (hyperuricemia model [5]; day 35): 1256.25 ± 332.40 µmol/L | UUA (concentration of urinary uric acid) (hyperuricemia model [5]; day 35): 173.57 ± 56.65 µmol/L | right kidney Weight [6]: 1.43 ± 0.10^ΔΔ g
